Assay results from ChEMBL document CHEMBL1833895, “Synthesis and biological activity of desmethoxy analogues of coruscanone A” (Bioorg Med Chem Lett, 2011).

How the values were obtained:
Candida albicans [1] = test: Antifungal activity against Candida albicans ATCC 90028 after 48 hrs by microdilution method; format: functional; details: ATCC 90028, 48 h
Candida tropicalis [2] = test: Antifungal activity against Candida tropicalis 156 after 24 hrs by microdilution method; format: functional; details: Candida tropicalis, 156, 24 h
CCRF-CEM = test: Cytostatic activity against human CCRF-CEM cells after 72 hrs by XTT assay; format: ADME, cell-based
HL-60 = test: Cytostatic activity against human HL60 cells at 10 umol/L after 72 hrs by XTT assay; format: ADME, cell-based; details: hl-60, 72 h, 10 µM
Clavispora lusitaniae [3] = test: Antifungal activity against Candida lusitaniae 2446/I after 48 hrs by microdilution method; format: functional
Aspergillus fumigatus [4] = test: Antifungal activity against Aspergillus fumigatus 231 after 24 hrs by microdilution method; format: functional, organism-based; details: Aspergillus fumigatus, 231, 24 h
[5] = Cytostatic activity against human HeLaS3 cells at 10 umol/L after 48 hrs by XTT assay; format: ADME, cell-based; details: hela s3, 48 h, 10 µM
Candida albicans [6] = test: Antifungal activity against Candida albicans ATCC 44859 after 48 hrs by microdilution method; format: functional; details: ATCC 44859, 48 h
Lichtheimia corymbifera [7] = test: Antifungal activity against Absidia corymbifera 272 after 24 hrs by microdilution method; format: functional, organism-based; details: Lichtheimia corymbifera, 272, 24 h
Clavispora lusitaniae [8] = test: Antifungal activity against Candida lusitaniae 2446/I after 24 hrs by microdilution method; format: functional
Candida albicans [9] = test: Antifungal activity against Candida albicans ATCC 44859 after 24 hrs by microdilution method; format: functional; details: ATCC 44859, 24 h
Lichtheimia corymbifera [10] = test: Antifungal activity against Absidia corymbifera 272 after 48 hrs by microdilution method; format: functional, organism-based; details: Lichtheimia corymbifera, 272, 48 h
Pichia kudriavzevii [11] = test: Antifungal activity against Candida krusei E28 after 24 hrs by microdilution method; format: functional; details: E28, 24 h
[12] = Cytostatic activity against human COLO201 cells at 10 umol/L after 72 hrs by XTT assay; format: ADME, cell-based; details: colo 201, 72 h, 10 µM
Pichia kudriavzevii [13] = test: Antifungal activity against Candida krusei ATCC 6258 after 48 hrs by microdilution method; format: functional; details: ATCC 6258, 48 h
Trichosporon asahii [14] = test: Antifungal activity against Trichosporon asahii 1188 after 48 hrs by microdilution method; format: functional; details: Trichosporon asahii, 1188, 48 h
Pichia kudriavzevii [15] = test: Antifungal activity against Candida krusei E28 after 48 hrs by microdilution method; format: functional; details: E28, 48 h
Pichia kudriavzevii [16] = test: Antifungal activity against Candida krusei ATCC 6258 after 24 hrs by microdilution method; format: functional; details: ATCC 6258, 24 h
Candida parapsilosis [17] = test: Antifungal activity against Candida parapsilosis ATCC 22019 after 48 hrs by microdilution method; format: functional; details: Lodderomyces parapsilosis, ATCC 22019, 48 h
[18] = system: Trichophyton mentagrophytes; test: Antifungal activity against Trichophyton mentagrophytes 445 after 120 hrs by microdilution method; format: functional, organism-based; details: Trichophyton mentagrophytes, 445, 120 h
L1210 = test: Cytostatic activity against mouse L1210 cells at 10 umol/L after 72 hrs by XTT assay; format: ADME, cell-based; details: l1210, 72 h, 10 µM
Nakaseomyces glabratus [19] = test: Antifungal activity against Candida glabrata 20/I after 48 hrs by microdilution method; format: functional
Aspergillus fumigatus [20] = test: Antifungal activity against Aspergillus fumigatus 231 after 48 hrs by microdilution method; format: functional, organism-based; details: Aspergillus fumigatus, 231, 48 h
HT-29 = test: Cytostatic activity against human HT-29 cells at 10 umol/L after 72 hrs by XTT assay; format: ADME, cell-based; details: ht-29, 72 h, 10 µM
[21] = system: Trichophyton mentagrophytes; test: Antifungal activity against Trichophyton mentagrophytes 445 after 72 hrs by microdilution method; format: functional, organism-based; details: Trichophyton mentagrophytes, 445, 72 h
Candida parapsilosis [22] = test: Antifungal activity against Candida parapsilosis ATCC 22019 after 24 hrs by microdilution method; format: functional; details: Lodderomyces parapsilosis, ATCC 22019, 24 h
Candida tropicalis [23] = test: Antifungal activity against Candida tropicalis 156 after 48 hrs by microdilution method; format: functional; details: Candida tropicalis, 156, 48 h
Candida albicans [24] = test: Antifungal activity against Candida albicans ATCC 90028 after 24 hrs by microdilution method; format: functional; details: ATCC 90028, 24 h
Nakaseomyces glabratus [25] = test: Antifungal activity against Candida glabrata 20/I after 24 hrs by microdilution method; format: functional
Trichosporon asahii [26] = test: Antifungal activity against Trichosporon asahii 1188 after 24 hrs by microdilution method; format: functional; details: Trichosporon asahii, 1188, 24 h

SMILES	IC80 (Candida albicans [1])	IC80 (Candida tropicalis [2])	IC80 (Clavispora lusitaniae [3])	IC80 (Aspergillus fumigatus [4])	IC80 (Candida albicans [6])	IC80 (Lichtheimia corymbifera [7])	IC80 (Clavispora lusitaniae [8])	IC80 (Candida albicans [9])	IC80 (Lichtheimia corymbifera [10])	IC80 (Pichia kudriavzevii [11])	IC80 (Pichia kudriavzevii [13])	IC80 (Trichosporon asahii [14])	IC80 (Pichia kudriavzevii [15])	IC80 (Pichia kudriavzevii [16])	IC80 (Candida parapsilosis [17])	IC50 [18]	IC80 (Nakaseomyces glabratus [19])	IC80 (Aspergillus fumigatus [20])	IC80 [21]	IC80 (Candida parapsilosis [22])	further results
COc1ccc(C=C2C(=O)C=CC2=O)cc1	7.81 µM	7.81 µM	31.2 µM	15.6 µM	7.81 µM	> 250 µM	7.81 µM	3.9 µM	> 250 µM	3.9 µM	3.9 µM	31.2 µM	7.81 µM	3.9 µM	15.6 µM	7.81 µM	7.81 µM	31.2 µM	3.9 µM	7.81 µM	IC50 (CCRF-CEM): 3.8 µM; Activity (HL-60): Non-toxic; Activity [5]: Non-toxic; Activity [12]: Non-toxic; Activity (L1210): Non-toxic; Activity (HT-29): Non-toxic; IC80 (Candida tropicalis [23]): 7.81 µM; IC80 (Candida albicans [24]): 7.81 µM; IC80 (Nakaseomyces glabratus [25]): 7.81 µM; IC80 (Trichosporon asahii [26]): 7.81 µM
OC(Cn1cncn1)(Cn1cncn1)c1ccc(F)cc1F [FLUCONAZOLE]	3.3 µM	3 µM	3.3 µM	> 50 µM	2 µM	> 50 µM	3.3 µM	1 µM	> 50 µM	> 50 µM	> 50 µM	9 µM	> 50 µM	> 50 µM	13 µM	26 µM	> 50 µM	> 50 µM	17 µM	6.5 µM	IC80 (Candida tropicalis [23]): 5 µM; IC80 (Candida albicans [24]): 0.8 µM; IC80 (Nakaseomyces glabratus [25]): 22 µM; IC80 (Trichosporon asahii [26]): 4 µM
O=C1C=CC(=O)C1=Cc1cccs1	15.6 µM	15.6 µM	15.6 µM	15.6 µM	7.81 µM	500 µM	15.6 µM	7.81 µM	> 500 µM	7.81 µM	15.6 µM	31.2 µM	7.81 µM	7.81 µM	15.6 µM	15.6 µM	15.6 µM	15.6 µM	15.6 µM	15.6 µM	IC50 (CCRF-CEM): 4.2 µM; Activity (HL-60): Non-toxic; Activity [5]: Non-toxic; Activity [12]: Non-toxic; Activity (L1210): Non-toxic; Activity (HT-29): Non-toxic; IC80 (Candida tropicalis [23]): 15.6 µM; IC80 (Candida albicans [24]): 15.6 µM; IC80 (Nakaseomyces glabratus [25]): 7.81 µM; IC80 (Trichosporon asahii [26]): 15.6 µM
O=C1C=CC(=O)C1=Cc1cccc(Br)c1	31.2 µM	31.2 µM	31.2 µM	125 µM	31.2 µM	> 125 µM	31.2 µM	15.6 µM	> 125 µM	31.2 µM	31.2 µM	125 µM	31.2 µM	15.6 µM	62.5 µM	15.6 µM	62.5 µM	125 µM	15.6 µM	31.2 µM	IC50 (CCRF-CEM): 7.5 µM; Activity (HL-60): Non-toxic; Activity [5]: Non-toxic; Activity [12]: Non-toxic; Activity (L1210): Non-toxic; Activity (HT-29): Non-toxic; IC80 (Candida tropicalis [23]): 62.5 µM; IC80 (Candida albicans [24]): 15.6 µM; IC80 (Nakaseomyces glabratus [25]): 31.2 µM; IC80 (Trichosporon asahii [26]): 32.5 µM
O=C1C=CC(=O)C1=Cc1ccc(F)cc1	31.2 µM	15.6 µM	31.2 µM	31.2 µM	15.6 µM	> 125 µM	15.6 µM	7.81 µM	> 125 µM	15.6 µM	31.2 µM	62.5 µM	31.2 µM	15.6 µM	31.2 µM	15.6 µM	31.2 µM	62.5 µM	15.6 µM	15.6 µM	IC50 (CCRF-CEM): 1.6 µM; Activity (HL-60): Non-toxic; Activity [5]: Non-toxic; Activity [12]: Non-toxic; Activity (L1210): Non-toxic; Activity (HT-29): Non-toxic; IC80 (Candida tropicalis [23]): 31.2 µM; IC80 (Candida albicans [24]): 15.6 µM; IC80 (Nakaseomyces glabratus [25]): 31.2 µM; IC80 (Trichosporon asahii [26]): 31.2 µM
Cc1ccc(C=C2C(=O)C=CC2=O)cc1	15.6 µM	7.81 µM	15.6 µM	31.2 µM	7.81 µM	> 250 µM	15.6 µM	3.9 µM	> 250 µM	15.6 µM	15.6 µM	62.5 µM	15.6 µM	7.81 µM	15.6 µM	> 250 µM	15.6 µM	125 µM	125 µM	15.6 µM	IC50 (CCRF-CEM): 2.7 µM; Activity (HL-60): Non-toxic; Activity [5]: Non-toxic; Activity [12]: Non-toxic; Activity (L1210): Non-toxic; Activity (HT-29): Non-toxic; IC80 (Candida tropicalis [23]): 15.6 µM; IC80 (Candida albicans [24]): 3.9 µM; IC80 (Nakaseomyces glabratus [25]): 15.6 µM; IC80 (Trichosporon asahii [26]): 15.6 µM
O=C1C=CC(=O)C1=Cc1ccc(Cl)cc1	31.2 µM	31.2 µM	31.2 µM	62.5 µM	31.2 µM	> 125 µM	31.2 µM	7.81 µM	> 125 µM	31.2 µM	31.2 µM	62.5 µM	62.5 µM	31.2 µM	31.2 µM	> 125 µM	62.5 µM	62.5 µM	125 µM	31.2 µM	IC50 (CCRF-CEM): 6.1 µM; Activity (HL-60): Non-toxic; Activity [5]: Non-toxic; Activity [12]: Non-toxic; Activity (L1210): Non-toxic; Activity (HT-29): Non-toxic; IC80 (Candida tropicalis [23]): 31.2 µM; IC80 (Candida albicans [24]): 31.2 µM; IC80 (Nakaseomyces glabratus [25]): 62.5 µM; IC80 (Trichosporon asahii [26]): 31.2 µM
O=C1C=CC(=O)C1=Cc1ccccc1	7.81 µM	3.9 µM	15.6 µM	15.6 µM	1.95 µM	250 µM	7.81 µM	1.95 µM	250 µM	3.9 µM	3.9 µM	3.9 µM	7.81 µM	3.9 µM	3.9 µM	3.9 µM	7.81 µM	31.2 µM	1.95 µM	3.9 µM	IC50 (CCRF-CEM): 2.6 µM; Activity (HL-60): Non-toxic; Activity [5]: Non-toxic; Activity [12]: Non-toxic; Activity (L1210): Non-toxic; Activity (HT-29): Non-toxic; IC80 (Candida tropicalis [23]): 3.9 µM; IC80 (Candida albicans [24]): 3.9 µM; IC80 (Nakaseomyces glabratus [25]): 7.81 µM; IC80 (Trichosporon asahii [26]): 1.95 µM
O=C1C=CC(=O)C1=C/C=C/c1ccccc1	15.6 µM	7.81 µM	15.6 µM	31.2 µM	1.95 µM	> 125 µM	7.81 µM	1.95 µM	> 125 µM	15.6 µM	7.81 µM	15.6 µM	15.6 µM	3.9 µM	7.81 µM	62.5 µM	31.2 µM	31.2 µM	7.81 µM	3.9 µM	IC50 (CCRF-CEM): 4.4 µM; Activity (HL-60): Non-toxic; Activity [5]: Non-toxic; Activity [12]: Non-toxic; Activity (L1210): Non-toxic; Activity (HT-29): Non-toxic; IC80 (Candida tropicalis [23]): 15.6 µM; IC80 (Candida albicans [24]): 15.6 µM; IC80 (Nakaseomyces glabratus [25]): 15.6 µM; IC80 (Trichosporon asahii [26]): 7.81 µM
